From ChEMBL document CHEMBL1147381, “Two new cytotoxic chalcones from Calythropsis aurea” (J Nat Prod, 1993)

Columns and labels:
[1] = Cytotoxicity against human NCI60 cells after 2 days by XTT assay; type: functional; conditions: NCI60, 48 h
L1210 = assay: Cytotoxicity against mouse L1210 cells after 24 hrs; type: functional, cell-based; conditions: L1210, 24 h

COc1ccc(C(=O)/C=C/c2ccc(O)c(O)c2)c(O)c1 [CALYTHROPSIN]
GI50 [1]: 0.66 µM
TGI [1]: 19.7 µM
CC50 ([1]; read-out: LC50 (the source's name)): > 50 µM
IC50 (L1210): 7 µM
